Results from ChEMBL document CHEMBL2046421, “Study on anti-proliferative effect of benzoxathiole derivatives through inactivation of NF-κB in human cancer cells” (Bioorg Med Chem Lett, 2012).

Legend:
[1] = Inhibition of NFkappaB expressed in RAW264.7 cells coexpressing NPT assessed as inhibition of LPS-induced SEAP activity incubated for 2 hrs prior to LPS-induction measured after 16 hrs by reporter gene assay; format: cell-based
NUGC-3 = experiment: Antiproliferative activity against human NUGC3 cells by SRB assay; format: functional
MDA-MB-231 = experiment: Antiproliferative activity against human MDA-MB-231 cells by SRB assay; format: functional
NCI-H23 = experiment: Antiproliferative activity against human NCI-H23 cells by SRB assay; format: functional
ACHN = experiment: Antiproliferative activity against human ACHN cells by SRB assay; format: functional
[2] = Inhibition of NFkappaB expressed in THP1 cells assessed as inhibition of LPS-induced SEAP activity incubated for 2 hrs prior to LPS-induction measured after 16 hrs by reporter gene assay; format: cell-based; details: THP-1
HCT-15 = experiment: Antiproliferative activity against human HCT15 cells by SRB assay; format: functional
PC-3 = experiment: Antiproliferative activity against human PC3 cells by SRB assay; format: functional

Row | IC50 [1] [µM] | GI50 (MDA-MB-231) [µM] | GI50 (NCI-H23) [µM] | GI50 (ACHN) [µM] | IC50 [2] [µM] | GI50 (HCT-15) [µM] | GI50 (PC-3) [µM] | Compound | GI50 (NUGC-3) [µM]
1 | 6.2 | 5.88 | 7.08 | 8.98 | 6.2 | 8.09 | 7.4 | CC1(C)CC(=O)c2s/c(=N/c3ccccc3)oc2C1 | 5.46
2 | 6.7 | 2.31 | 2.72 | 2.98 | 6.7 | 2.07 | 2.63 | CC1CC(=O)c2s/c(=N/c3ccccc3)oc2C1 (stereo not drawn) | 1.89
3 | 4.9 | 2.48 | 2.28 | 3.08 | 4.9 | 1.15 | 2.19 | CC(C)C1CC(=O)c2s/c(=N/c3ccccc3)oc2C1 (stereo not drawn) | 1.22
4 | 12.5 | 13.1 | 12.5 | 11.3 | 12.5 | 12.2 | 12.7 | CC1(C)CC(=O)c2s/c(=N/C3CCCCC3)oc2C1 | 11.5
5 | 13.1 | 5.9 | 7.08 | 6.7 | 13.1 | 3.53 | 5.16 | CC(C)C1CC(=O)c2s/c(=N/C3CCCCC3)oc2C1 (stereo not drawn) | 2.71
6 | 7.5 | 6.38 | 11.6 | 9.81 | 7.5 | 3.79 | 4.26 | CC1(C)CC(=O)c2s/c(=N/c3ccc(Cl)cc3)oc2C1 | 2.94
7 | 19.5 | 14.3 | 13.5 | 12.3 | 19.5 | 12.2 | 16.4 | CC1CC(=O)c2s/c(=N/c3ccc(Cl)cc3)oc2C1 (stereo not drawn) | 15.9
8 | 10.6 | 3.2 | 3.36 | 3.74 | 10.6 | 2.39 | 2.45 | CC1(C)CC(=O)c2s/c(=N/c3ccc(F)cc3)oc2C1 | 1.08
9 | 7.9 | 2.69 | 3.65 | 3.67 | 7.9 | 2.99 | 2.76 | CC(C)C1CC(=O)c2s/c(=N/c3ccc(F)cc3)oc2C1 (stereo not drawn) | 0.67
10 | > 30 | > 30 | > 30 | > 30 | > 30 | > 30 | > 30 | CC1(C)CC(=O)c2s/c(=N/c3c(Cl)cc(Cl)cc3Cl)oc2C1 | > 30
11 | > 30 | > 30 | > 30 | > 30 | > 30 | > 30 | > 30 | CC1CC(=O)c2s/c(=N/c3c(Cl)cc(Cl)cc3Cl)oc2C1 (stereo not drawn) | > 30
12 | > 30 | > 30 | > 30 | > 30 | > 30 | > 30 | > 30 | CC(C)C1CC(=O)c2s/c(=N/c3c(Cl)cc(Cl)cc3Cl)oc2C1 (stereo not drawn) | > 30
13 | > 30 | > 30 | > 30 | > 30 | > 30 | > 30 | > 30 | CC1(C)CC(=O)c2o/c(=N/C3CCCCC3)oc2C1 | > 30
14 | > 30 | > 30 | > 30 | > 30 | > 30 | > 30 | > 30 | CCCc1o/c(=N\c2ccccc2)sc1C(C)=O | > 30
15 | – | 1.79 | 1.66 | 1.63 | – | 1.34 | 1.65 | COc1cccc2c1C(=O)c1c(O)c3c(c(O)c1C2=O)C[C@@](O)(C(=O)CO)C[C@@H]3O[C@H]1C[C@H](N)[C@H](O)[C@H](C)O1 [DOXORUBICIN] | 1
